Source: patent US7767704B2, “Antiviral 4-aminocarbonylamino-substituted imidazole compounds” (AiCuris GmbH & Co. KG, priority 2004, dated 2010)

Assays:
HCMV = test: Anti-HCMV (anti-human cytomegalovirus) cytopathogenicity test; assay type: cell-based; conditions: Human betaherpesvirus 5, 144 h; HCMV-infected NHDF cells, M.O.I. 0.001-0.002, 6 days; inhibition of CPE by 50% vs untreated virus control
Experimental: (§1) Anti-HCMV (Anti-human Cytomegalovirus) Cytopathogenicity Tests
(§2) The test compounds are employed as 50 millimolar (mM) solutions in dimethyl sulphoxide (DMSO). Ganciclovir, foscarnet and cidofovir are used as reference compounds. After addition of in each case 2 μl of the 50, 5, 0.5 and 0.05 mM DMSO stock solutions to 98 μl portions of cell culture medium in row 2 A-H for duplicate determinations, 1:2 dilutions are carried out with 50 μl portions of medium up to row 11 of the 96-well plate. The wells in rows 1 and 12 each contain 50 μl of medium. 150 μl of a suspension of 1×10^4 cells (human prepuce fibroblasts [NHDF]) are pipetted into each of the wells (row 1=cell control) and, in rows 2-12, a mixture of HCMV-infected and uninfected NHDF cells (M.O.I.=0.001-0.002), i.e. 1-2 infected cells per 1000 uninfected cells. Row 12 (without substance) serves as virus control. The final test concentrations are 250-0.0005 μM. The plates are incubated at 37° C./5% CO2 for 6 days, i.e. until all the cells are infected in the virus controls (100% cytopathogenic effect [CPE]). The wells are then fixed and stained by adding a mixture of formalin and Giemsa's dye (30 minutes), washed with double-distilled water and dried in a drying oven at 50° C. The plates are then assessed visually using an overhead microscope (plaque multiplier from Technomara).
(§3) The following data can be acquired from the test plates: • CC50 (NHDF)=substance concentration in μM at which no visible cytostatic effects on the cells are evident by comparison with the untreated cell control; • EC50 (HCMV)=substance concentration in […] which inhibits the CPE (cytopathic effect) by 50% compared with the untreated virus control; • SI (selectivity index)=CC50 (NHDF)/EC50 (HCMV).

[1] = Cytostatic effect on NHDF cells in the anti-HCMV cytopathogenicity test; assay type: cell-based; conditions: NHDF cells (human prepuce fibroblasts), 6 days incubation, visual assessment, concentration at which no visible cytostatic effects are evident
Experimental: as §1, §2, §3

## COc1ccc(C(C)NC(=O)c2nc(NC(=O)Nc3ccc(C)c(F)c3)cn2C)cn1 (stereo not shown) [Example 2, 4-({[(3-Fluoro-4-methylphenyl)amino]carbonyl}amino)-N-[1-(6-methoxypyridin-3-yl)ethyl]-1-methyl-1H-imidazole-2-carboxamide]
HCMV
  EC50: 0.5 nM
[1]
  CC50 at 6 days: 94 µM

## Cc1cc(Cl)ccc1NC(=O)Nc1cn(CC2CC2)c(C(=O)NCCCN2CCOCC2)n1 [Example 3, 4-({[(4-Chloro-2-methylphenyl)amino]carbonyl}amino)-1-(cyclopropylmethyl)-N-(3-morpholin-4-ylpropyl)-1H-imidazole-2-carboxamide]
HCMV
  EC50: 3 nM
[1]
  CC50 at 6 days: 25 µM

## Cc1cc(Cl)ccc1NC(=O)Nc1cn(CC2CC2)c(C(=O)NCCCn2cccn2)n1 [Example 11]
HCMV
  EC50: 1 nM
[1]
  CC50 at 6 days: 25 µM

## COCCOCCCNC(=O)c1nc(NC(=O)Nc2ccc(Cl)cc2C)cn1CC=C(C)C [Example 25]
HCMV
  EC50: 1 nM
[1]
  CC50 at 6 days: 6.25 µM

## COc1ccc(CNC(=O)c2nc(NC(=O)Nc3ccc(OC(F)(F)F)cc3)cn2CC2CC2)cc1 [Example 32]
HCMV
  EC50: 1 nM
[1]
  CC50 at 6 days: 3.13 µM

## O=C(Nc1ccc(OC(F)(F)F)cc1)Nc1cn(Cc2ccc(C(F)(F)F)cc2)c(C(=O)NCCO)n1 [Example 124, N-(2-Hydroxyethyl)-4-[({[4-(trifluoromethoxy)phenyl]amino}carbonyl)amino]-1-[4-(trifluoromethyl)benzyl]-1H-imidazole-2-carboxamide]
HCMV
  EC50: 1.4 nM
[1]
  CC50 at 6 days: 9.4 µM

## O=C(Nc1ccc(OC(F)(F)F)cc1)Nc1cn(Cc2ccc(C(F)(F)F)cc2)c(C(=O)NCCOC(=O)CN2CCOCC2)n1 [Example 139]
HCMV
  EC50: 2.8 nM
[1]
  CC50 at 6 days: 4.7 µM

## Cn1cc(NC(=O)Nc2ccc(OC(F)(F)F)cc2)nc1C(=O)NCCCC(F)(F)F [Example 152, 1-Methyl-N-(4,4,4-trifluorobutyl)-4-[({[4-(trifluoromethoxy)phenyl]amino}carbonyl)amino]-1H-imidazole-2-carboxamide]
HCMV
  EC50: 1.9 nM
[1]
  CC50 at 6 days: 31 µM
